# “And” between values parts separate entries of the source, which are not always exact repeats. Identical values can stand only once. Toxic doses and inconclusive results are not listed.
# Tested on: L1210 leukemia ip in BDF1 mice, survival T/C
# Experiment: NCI In Vivo Anticancer Drug Screen. Data for tumor model L1210 Leukemia (intraperitoneal) in B6D2F1 (BDF1) mice
# Conditions: endpoint: mean survival time, higher = longer survival
# Outline: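 Value reflects the ratio of survival in compound-treated mice to survival in vehicle-treated controls, with both groups carrying the same transplanted tumor.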
# [1] = dose: 100.0 mg/kg/injection, schedule: Q04DX003 (ip), vehicle: Klucel (hydroxypropylcellulose) (HPC)
# [2] = dose: 200.0 mg/kg/injection, schedule: Q04DX003 (ip), vehicle: Klucel (hydroxypropylcellulose) (HPC)
# [3] = dose: 400.0 mg/kg/injection, schedule: Q04DX003 (ip), vehicle: Klucel (hydroxypropylcellulose) (HPC)
# [4] = dose: 25.0 mg/kg/injection, schedule: Q04DX002 (ip), vehicle: saline with Tween-80
# [5] = dose: 50.0 mg/kg/injection, schedule: Q04DX002 (ip), vehicle: saline with Tween-80
# [6] = dose: 100.0 mg/kg/injection, schedule: Q01DX001 (ip), vehicle: saline
# [7] = dose: 200.0 mg/kg/injection, schedule: Q01DX001 (ip), vehicle: saline
# [8] = dose: 100.0 mg/kg/injection, schedule: Q01DX009 (ip), vehicle: Klucel (hydroxypropylcellulose) (HPC)
# [9] = dose: 200.0 mg/kg/injection, schedule: Q01DX009 (ip), vehicle: Klucel (hydroxypropylcellulose) (HPC)
# [10] = dose: 400.0 mg/kg/injection, schedule: Q01DX009 (ip), vehicle: Klucel (hydroxypropylcellulose) (HPC)
# [11] = dose: 50.0 mg/kg/injection, schedule: Q01DX001 (ip), vehicle: carboxymethylcellulose (CMC)
# [12] = dose: 100.0 mg/kg/injection, schedule: Q01DX001 (ip), vehicle: carboxymethylcellulose (CMC)
# [13] = dose: 400.0 mg/kg/injection, schedule: Q01DX001 (ip), vehicle: carboxymethylcellulose (CMC)
structure (smiles),measurement,setting,value
COc1cc2c3c(c1)/C(=N\Nc1ccccc1)CCN3CCC2,T/C,"dose: 6.25 mg/kg/injection, schedule: Q01DX009 (ip), vehicle: DMSO",90 % of control
same,T/C,"dose: 12.5 mg/kg/injection, schedule: Q01DX009 (ip), vehicle: DMSO",91 % of control
same,T/C,"dose: 25.0 mg/kg/injection, schedule: Q01DX009 (ip), vehicle: DMSO",93 % of control and 90 % of control
same,T/C,"dose: 25.0 mg/kg/injection, schedule: Q04DX003 (ip), vehicle: DMSO",95 % of control
same,T/C,"dose: 50.0 mg/kg/injection, schedule: Q04DX003 (ip), vehicle: DMSO",95 % of control
same,T/C,"dose: 100.0 mg/kg/injection, schedule: Q04DX003 (ip), vehicle: DMSO",100 % of control
same,T/C,"dose: 200.0 mg/kg/injection, schedule: Q04DX003 (ip), vehicle: gum acacia",92 % of control
CCCCCCCCCCCCCCCCSC1CC(=O)N(c2ccc3c(c2)Cc2ccccc2-3)C1=O (configuration not stated),T/C,[1],96 % of control
same,T/C,[2],96 % of control
same,T/C,[3],100 % of control
CCOC(=O)NCCCCN(C(C)=O)n1cnc2c(SC)ncnc21,T/C,"dose: 12.5 mg/kg/injection, schedule: Q04DX002 (ip), vehicle: saline with Tween-80",100 % of control
same,T/C,[4],94 % of control
same,T/C,[5],97 % of control
CNC1(c2ccccc2)CC1,T/C,"dose: 75.0 mg/kg/injection, schedule: Q04DX002 (ip), vehicle: saline",100 % of control
same,T/C,"dose: 150.0 mg/kg/injection, schedule: Q04DX002 (ip), vehicle: saline",87 % of control
CC(C)NCCCN,T/C,[4],98 % of control
same,T/C,[5],98 % of control
same,T/C,[6],103 % of control
same,T/C,"dose: 100.0 mg/kg/injection, schedule: Q04DX002 (ip), vehicle: saline with Tween-80",101 % of control and 106 % of control
same,T/C,[7],109 % of control
CC1(C)N=C(N)N=C(N)N1c1cccc(CC(=O)Nc2ccc(S(=O)(=O)F)cc2)c1,T/C,"dose: 0.8 mg/kg/injection, schedule: Q01DX009 (ip), vehicle: saline",101 % of control
same,T/C,"dose: 4.0 mg/kg/injection, schedule: Q01DX009 (ip), vehicle: saline",100 % of control
same,T/C,"dose: 20.0 mg/kg/injection, schedule: Q01DX009 (ip), vehicle: saline",110 % of control
same,T/C,"dose: 25.0 mg/kg/injection, schedule: Q01DX009 (ip), vehicle: Klucel (hydroxypropylcellulose) (HPC)",108 % of control
same,T/C,"dose: 25.0 mg/kg/injection, schedule: Q01DX009 (ip), vehicle: saline with Tween-80",103 % of control
same,T/C,"dose: 50.0 mg/kg/injection, schedule: Q01DX009 (ip), vehicle: Klucel (hydroxypropylcellulose) (HPC)",113 % of control
same,T/C,"dose: 50.0 mg/kg/injection, schedule: Q01DX009 (ip), vehicle: saline with Tween-80",100 % of control
same,T/C,"dose: 88.0 mg/kg/injection, schedule: Q01DX009 (ip), vehicle: saline with Tween-80",102 % of control
same,T/C,[8],109 % of control
same,T/C,"dose: 100.0 mg/kg/injection, schedule: Q01DX009 (ip), vehicle: saline",117 % of control
same,T/C,"dose: 132.0 mg/kg/injection, schedule: Q01DX009 (ip), vehicle: saline with Tween-80",121 % of control
same,T/C,"dose: 150.0 mg/kg/injection, schedule: Q01DX009 (ip), vehicle: Klucel (hydroxypropylcellulose) (HPC)",105 % of control
same,T/C,"dose: 300.0 mg/kg/injection, schedule: Q01DX009 (ip), vehicle: saline with Tween-80",89 % of control
CC1(COCCOCC2(C)CO2)CO1 (configuration not stated),T/C,"dose: 100.0 mg/kg/injection, schedule: Q04DX003 (ip), vehicle: saline",97 % of control
same,T/C,"dose: 180.0 mg/kg/injection, schedule: Q01DX009 (ip), vehicle: saline",106 % of control and 108 % of control
same,T/C,"dose: 200.0 mg/kg/injection, schedule: Q04DX003 (ip), vehicle: saline",103 % of control
same,T/C,"dose: 266.0 mg/kg/injection, schedule: Q01DX009 (ip), vehicle: saline",112 % of control
same,T/C,"dose: 400.0 mg/kg/injection, schedule: Q01DX009 (ip), vehicle: saline",150 % of control
O=C(COc1ccc(Cl)cc1)Nc1cc(C(F)(F)F)ccc1Cl,T/C,[8],94 % of control
same,T/C,[1],98 % of control
same,T/C,[9],86 % of control
same,T/C,[2],93 % of control
same,T/C,[10],86 % of control
same,T/C,[3],95 % of control
O=C(O)COc1cc(Cl)cc(Cl)c1,T/C,"dose: 50.0 mg/kg/injection, schedule: Q04DX002 (ip), vehicle: other",91 % of control
same,T/C,"dose: 100.0 mg/kg/injection, schedule: Q04DX002 (ip), vehicle: other",94 % of control
same,T/C,"dose: 200.0 mg/kg/injection, schedule: Q04DX002 (ip), vehicle: other",108 % of control
NC(=O)C1(Nc2ccc(-c3ccc(Br)cc3)cc2)CCCC1,T/C,[11],95 % of control
same,T/C,[12],86 % of control
same,T/C,[13],86 % of control
CCC(C)[P+](c1ccccc1)(c1ccccc1)c1ccccc1 (configuration not stated),T/C,"dose: 3.75 mg/kg/injection, schedule: Q01DX001 (ip), vehicle: carboxymethylcellulose (CMC)",118 % of control
same,T/C,"dose: 7.0 mg/kg/injection, schedule: Q01DX015 (ip), vehicle: carboxymethylcellulose (CMC)",118 % of control
same,T/C,"dose: 7.5 mg/kg/injection, schedule: Q01DX001 (ip), vehicle: carboxymethylcellulose (CMC)",118 % of control
same,T/C,"dose: 12.5 mg/kg/injection, schedule: Q04DX002 (ip), vehicle: Klucel (hydroxypropylcellulose) (HPC)",109 % of control
same,T/C,"dose: 14.0 mg/kg/injection, schedule: Q01DX015 (ip), vehicle: carboxymethylcellulose (CMC)",120 % of control
same,T/C,"dose: 15.0 mg/kg/injection, schedule: Q01DX001 (ip), vehicle: carboxymethylcellulose (CMC)",119 % of control
same,T/C,"dose: 25.0 mg/kg/injection, schedule: Q04DX002 (ip), vehicle: Klucel (hydroxypropylcellulose) (HPC)",91 % of control
O/N=C/c1c(I)cc(I)c(O)c1I,T/C,[8],101 % of control
same,T/C,[9],106 % of control
same,T/C,[10],90 % of control
CCOC(CCl)[N+](C)(C)C (configuration not stated),T/C,"dose: 100.0 mg/kg/injection, schedule: Q04DX002 (ip), vehicle: saline",91 % of control
Nc1ncnc(N)c1NC(=O)CCCc1ccccc1,T/C,[1],86 % of control
same,T/C,[2],92 % of control
COCCNc1ccc(NCCOC)c2c1C(=O)c1ccccc1C2=O,T/C,"dose: 87.5 mg/kg/injection, schedule: Q04DX003 (ip), vehicle: Klucel (hydroxypropylcellulose) (HPC)",91 % of control
same,T/C,"dose: 175.0 mg/kg/injection, schedule: Q04DX003 (ip), vehicle: Klucel (hydroxypropylcellulose) (HPC)",91 % of control
same,T/C,"dose: 350.0 mg/kg/injection, schedule: Q04DX003 (ip), vehicle: Klucel (hydroxypropylcellulose) (HPC)",88 % of control
O=[N+]([O-])c1ccc2n[nH]c(Cl)c2c1,T/C,[6],95 % of control
same,T/C,[7],95 % of control
same,T/C,"dose: 400.0 mg/kg/injection, schedule: Q01DX001 (ip), vehicle: saline",94 % of control
Cc1ccc(S(=O)(=O)OCCN(CCOS(=O)(=O)c2ccc(C)cc2)c2cccc(Cl)c2)cc1,T/C,[11],98 % of control
same,T/C,[12],98 % of control
same,T/C,"dose: 200.0 mg/kg/injection, schedule: Q01DX001 (ip), vehicle: carboxymethylcellulose (CMC)",109 % of control
same,T/C,[13],114 % of control
CC1c2ccccc2N(CCCN(C)C)c2ccccc21,T/C,"dose: 4.0 mg/kg/injection, schedule: Q01DX015 (ip), vehicle: saline",105 % of control
same,T/C,"dose: 8.0 mg/kg/injection, schedule: Q01DX015 (ip), vehicle: saline",103 % of control
same,T/C,"dose: 16.0 mg/kg/injection, schedule: Q01DX015 (ip), vehicle: saline",97 % of control
same,T/C,"dose: 32.0 mg/kg/injection, schedule: Q01DX015 (ip), vehicle: saline",97 % of control and 100 % of control
same,T/C,"dose: 50.0 mg/kg/injection, schedule: Q04DX003 (ip), vehicle: saline",108 % of control
same,T/C,"dose: 64.0 mg/kg/injection, schedule: Q01DX015 (ip), vehicle: saline",97 % of control
same,T/C,"dose: 128.0 mg/kg/injection, schedule: Q01DX015 (ip), vehicle: saline",92 % of control
CC(C)(C)c1cc(C(C)(C)C)nc(C(C)(C)C)c1,T/C,"dose: 100.0 mg/kg/injection, schedule: Q01DX001 (ip), vehicle: Klucel (hydroxypropylcellulose) (HPC)",98 % of control
same,T/C,"dose: 200.0 mg/kg/injection, schedule: Q01DX001 (ip), vehicle: Klucel (hydroxypropylcellulose) (HPC)",98 % of control
